# According to patent publication US20120282258A1, “CRLF2 IN PRECURSOR B-CELL ACUTE LYMPHOBLASTIC LEUKEMIA” (DANA-FARBER CANCER INSTITUTE, INC., priority 2009, published 2012):
# Key:
# [1] = tested on: BaF3-CRLF2 Phe232Cys cells; assay: Toxicity of agents with activity against PKC family kinases in BaF3 cells; type: cell-based, murine
# [2] = tested on: BaF3 cells expressing CRLF2/mutant JAK2; assay: Viability of BaF3 cells exposed to JAK inhibitor-1 for 72 hours, relative to vehicle; type: cell-based, murine; conditions: BaF3 CRLF2/mutant JAK2, no cytokines, FIG. 5
# Method: (§1) FIG. 5 is a graph depicting signal activation and dependence on JAK signaling. BaF3 cells that stably express BCR/ABL, CRLF2 and/or JAK2 were grown in the absence of cytokines. +IL3 indicates unmodified BaF3 cells grown in the presence of 500 pg/mL IL-3. Data represents the ratio of viable cells exposed to JAK inhibitor-1 (Calbiochem) at varying concentrations for 72 hours, compared to the same cell line exposed to vehicle. Error bars indicate one standard deviation.
# (§2) As expected, TSLP had no effect on STAT5, ERK or JAK2 phosphorylation in cells with mutant CRLF2 or JAK2 proteins.
# [3] = tested on: BaF3 cells expressing CRLF2 Phe232Cys; assay: as above; type: cell-based, murine; conditions: no cytokines, FIG. 5
# Method: as §1, §2
# [4] = tested on: STAT5, ERK or JAK2 phosphorylation in cells with mutant CRLF2 or JAK2 proteins; assay: Phosphorylation of STAT5, ERK and JAK2 in BaF3 cells treated with TSLP; type: cell-based, murine
# Excerpt: In BaF3 cells, both CRLF2 Phe232Cys and CRLF2/mutant JAK2 promoted the phosphorylation of the JAK targets STAT5 and ERK.
# as §2
# [5] = tested on: BaF3 cells that express CRLF2/mutant JAK2; assay: In vitro cell growth in the absence of IL-3 with TSLP added; type: cell-based, murine
# Method: (§3) FIG. 3 is a group of four graphs depicting in vitro cell growth of UT7 cells and BaF cells that stably express CRLF2 and/or JAK2 alleles grown in the absence of GM-CSF (UT7) or IL-3 (BaF3). For the bottom right panel, TSLP 1 ng/mL was added at day 0, as indicated. Growth is the number of viable cells relative to the number of cells initially seeded on day 0. Error bars represent one standard deviation.
# (§4) Unlike cells that express CRLF2/IL-7R, the addition of TSLP had no effect on the growth of BaF3 cells expressing CRLF2 Phe232Cys (FIG. 3).
# [6] = tested on: BaF3 cells expressing CRLF2 Phe232Cys; assay: as above; type: cell-based, murine; conditions: TSLP 1 ng/mL added at day 0, FIG. 3
# Method: as §3, §4
# [7] = tested on: BaF3 cells that express CRLF2 Phe232Cys/IL-7R; assay: as above; type: cell-based, murine; conditions: BaF3 CRLF2 Phe232Cys/IL-7R, TSLP 1 ng/mL added at day 0, FIG. 3
# Method: as §3, §4
# [8] = tested on: phospho-JAK2 in CRLF2/IL-7R cells; assay: Phospho-JAK2 in CRLF2/IL-7R cells treated with TSLP; type: cell-based, murine
# Excerpt: as §2
# [9] = biological target: the molecule itself; assay: immunoblot of BaF3 cells under reducing and non-reducing conditions (homodimer)
# Method: (§5) The CRLF2 Phe232 residue is near the junction of the extracellular and transmembrane domains. Mutations that introduce cysteine residues in this region of other receptor tyrosine kinases, such as RET, can activate signal transduction through intermolecular disulfide-bonded dimers. To confirm that CRLF2 Phe232Cys promotes constitutive dimerization, immunoblots in BaF3 cells expressing wild-type CRLF2 or CRLF2 Phe232Cys were performed under both reducing and non-reducing conditions. Under non-reducing conditions, the molecular weight of the CRLF2 Phe232Cys band, but not the wild-type band, was doubled, consistent with constitutive dimerization through the cysteine residues.
# [10] = biological target: the molecule itself; assay: immunoblot of BaF3 cells under reducing and non-reducing conditions (self-association)
# Method: as §5
molecule,measurement,setting,value
Cn1c2ccccc2c2c3c(c4c5ccccc5n(CCC#N)c4c21)CNC3=O [Go6976],toxicity in BaF3-CRLF2 Phe232Cys cells as compared to BaF3 cells expressing wild-type CRLF2,[1],selective toxicity
CO[C@@H]1[C@H](N(C)C(=O)c2ccccc2)C[C@H]2O[C@]1(C)n1c3ccccc3c3c4c(c5c6ccccc6n2c5c31)C(=O)NC4 [PKC412],toxicity in BaF3-CRLF2 Phe232Cys cells as compared to BaF3 cells expressing wild-type CRLF2,[1],selective toxicity
CN[C@@H]1C[C@H]2O[C@@](C)([C@@H]1OC)n1c3ccccc3c3c4c(c5c6ccccc6n2c5c31)C(=O)N[C@@H]4O [UCN-01],toxicity in BaF3-CRLF2 Phe232Cys cells as compared to BaF3 cells expressing wild-type CRLF2,[1],selective toxicity
COC(=O)[C@@]1(O)C[C@H]2O[C@]1(C)n1c3ccccc3c3c4c(c5c6ccccc6n2c5c31)C(=O)NC4 [k252a],toxicity in BaF3-CRLF2 Phe232Cys cells as compared to BaF3 cells expressing wild-type CRLF2,[1],selective toxicity
CC(C)(C)c1nc2c3cc[nH]c(=O)c3c3cc(F)ccc3c2[nH]1 [small molecule JAK inhibitor],sensitivity of cells to JAK inhibitor (ratio of viable cells versus vehicle),[2],highly sensitive
same,sensitivity of cells to JAK inhibitor (ratio of viable cells versus vehicle),[3],highly sensitive
"TSLP: thymic stromal lymphopoietin, cytokine ligand of the CRLF2/IL-7R heterodimer","effect of TSLP on STAT5, ERK or JAK2 phosphorylation",[4],no effect
same,effect of TSLP on cell growth,[5],did not promote the growth
same,effect of TSLP on cell growth,[6],no effect
same,effect of TSLP on cell growth,[7],promoted the growth
same,phospho-JAK2 after TSLP treatment,[8],no detectable phospho-JAK2
"CRLF2 Phe232Cys (F232C mutant of human CRLF2) (receptor, Expressed in BaF3 cells; also called CRLF2 F232C; CRLF2 711T>G) QGGAAEGVQIQIIYFNLETVQVTWNASKYSRTNLTFHYRFNGDEAYDQCTNYLLQEGHTSGCLLDAEQRDDILYFSIRNGTHPVFTASRWMVYYLKPSSPKHVRFSWHQDAVTVTCSDLSYGDLLYEVQYRSPFDTEWQSKQENTCNVTIEGLDAEKCYSFWVRVKAMEDVYGPDTYPSDWSEVTCWQRGEIRDACAETPTPPKPKLSKCILISSLAILLMVSLLLLSLWKLWRVKKFLIPSVPDPKSIFPGLFEIHQGNFQEWITDTQNVAHLHKMAGAEQESGPEEPLVVQLAKTEAESPRMLDPQTEEKEASGGSLQLPHQPLQGGDVVTIGGFTFVMNDRSYVAL",binding result,[9],binds
"wild-type human cytokine receptor-like factor 2 (CRLF2) (receptor, Expressed by retrovirus in BaF3 cells and detected by immunoblot of the cells; also called wt CRLF2; CRL2) QGGAAEGVQIQIIYFNLETVQVTWNASKYSRTNLTFHYRFNGDEAYDQCTNYLLQEGHTSGCLLDAEQRDDILYFSIRNGTHPVFTASRWMVYYLKPSSPKHVRFSWHQDAVTVTCSDLSYGDLLYEVQYRSPFDTEWQSKQENTCNVTIEGLDAEKCYSFWVRVKAMEDVYGPDTYPSDWSEVTCWQRGEIRDACAETPTPPKPKLSKFILISSLAILLMVSLLLLSLWKLWRVKKFLIPSVPDPKSIFPGLFEIHQGNFQEWITDTQNVAHLHKMAGAEQESGPEEPLVVQLAKTEAESPRMLDPQTEEKEASGGSLQLPHQPLQGGDVVTIGGFTFVMNDRSYVAL",binding result,[10],no binding
